Drawing on article doi:10.1101/2022.07.25.501355v1, “Building artificial plant cell wall on lipid bilayer by assembling polysaccharides and engineered proteins” (biorxiv, 2022), this text covers Kd for 1 molecule.

One assay addresses T1, diCBM77Rf (Ruminococcus flavefaciens, UniProt A0A1A9TA81).
T1 construct: CBM77 domain only; N-terminal His-tag cut by TEV; E. coli BL21(DE3)
T1 sequence (A0A1A9TA81 2-115): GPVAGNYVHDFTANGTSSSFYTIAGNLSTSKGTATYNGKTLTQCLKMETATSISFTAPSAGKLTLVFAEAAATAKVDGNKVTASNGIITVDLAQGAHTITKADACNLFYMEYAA
Put plainly: isothermal titration calorimetry. Type of assay: binding. To be noted: 25 °C; 20 mM Tris pH 7.5, 100 mM NaCl (ligand in 20 mM Tris pH 7.5); N fixed at 2 in the fit; no full sigmoid; ligand mainly DP7 with some DP8. The text has this:
isothermal titration calorimetry on diCBM77Rf

In another assay the target is Janus lectin RSL-CBM77Rf. Type of assay: binding, Ralstonia nicotianae / Ruminococcus flavefaciens. To be noted: 25 °C; 20 mM Tris pH 7.5, 100 mM NaCl (ligand in 20 mM Tris pH 7.5); site on CBM77Rf part; ligand mainly DP7 with some DP8.

For `O=C(O)[C@H]1O[C@H](O[C@@H]2[C@H](O)[C@@H](O)[C@@H](O[C@@H]3[C@H](O)[C@@H](O)[C@@H](O[C@@H]4[C@H](O)[C@@H](O)[C@@H](O[C@@H]5[C@H](O)[C@@H](O)[C@@H](O[C@@H]6[C@H](O)[C@@H](O)[C@@H](O[C@@H]7[C@H](O)[C@@H](O)C(O)O[C@@H]7C(=O)O)O[C@@H]6C(=O)O)O[C@@H]5C(=O)O)O[C@@H]4C(=O)O)O[C@@H]3C(=O)O)O[C@@H]2C(=O)O)[C@H](O)[C@@H](O)[C@H]1O` (some centres unmarked) [GalA_DP7], the Kd on diCBM77Rf was 1280 ± 100 µM; at Janus lectin RSL-CBM77Rf, 103 ± 15 µM.
